Laboratory results published in the supplement of paper PMC10307832.

What was measured:
Assay in all cases: relative viability (nuclei count vs DMSO), 5 days (fraction); higher = more cells survive
NCI-H322M = test system: NCI-H322M
Method in brief: (§1)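 Cells from lung cancer lines were seeded into 1536-well plates and, one day later, dosed by pin tool. Treatments were either a single drug or a fixed dose of an anchor drug with five library-drug doses (not always all listed) in √10 steps. After 5 days, nuclei were stained in a one-step fixation (final 0.05% Triton X-100, 1% formaldehyde, 1 ug/ml Hoechst) and counted on 4× images, and relative viability is the treated-to-vehicle nuclei ratio, as the median of duplicate plates.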

NCI-H441 = test system: NCI-H441
Method in brief: as §1

NCI-H460 = test system: NCI-H460
Method in brief: as §1

NCI-H520 = test system: NCI-H520
Method in brief: as §1

NCI-H596 = test system: NCI-H596
Method in brief: as §1

NCI-H650 = test system: NCI-H650
Method in brief: as §1

NCI-H661 = test system: NCI-H661
Method in brief: as §1

NCI-H727 = test system: NCI-H727
Method in brief: as §1

PC-14 = test system: PC-14
Method in brief: as §1

RERF-LC-KJ = test system: RERF-LC-KJ
Method in brief: as §1

SK-MES-1 = test system: SK-MES-1
Method in brief: as §1

SW 900 = test system: SW 900
Method in brief: as §1

Question: NC(=O)Nc1cc(-c2cccc(F)c2)sc1C(=O)N[C@H]1CCCNC1 [AZD7762] + Cc1nc(Nc2ncc(C(=O)Nc3c(C)cccc3Cl)s2)cc(N2CCN(CCO)CC2)n1 [Dasatinib] (partner 0.075 µM) was tested. Which relative viability (NCI-H322M; first compound 0.1 µM) did it give?
Answer: 0.286

Question: And the relative viability (NCI-H322M; first compound 0.3162 µM)?
Answer: 0.279

Question: What about the relative viability (NCI-H322M; first compound 1 µM) of the same molecule?
Answer: 0.256

Question: And the relative viability (NCI-H441; first compound 0.01 µM)?
Answer: 0.773

Question: And the relative viability (NCI-H441; first compound 0.03162 µM)?
Answer: 0.68

Question: What about the relative viability (NCI-H441; first compound 0.1 µM) of the same molecule?
Answer: 0.555

Question: And the relative viability (NCI-H441; first compound 0.3162 µM)?
Answer: 0.556

Question: What about the relative viability (NCI-H441; first compound 1 µM) of the same molecule?
Answer: 0.384

Question: And the relative viability (NCI-H460; first compound 0.01 µM)?
Answer: 0.531

Question: And the relative viability (NCI-H460; first compound 0.03162 µM)?
Answer: 0.578

Question: And the relative viability (NCI-H460; first compound 0.1 µM)?
Answer: 0.443

Question: What about the relative viability (NCI-H460; first compound 0.3162 µM) of the same molecule?
Answer: 0.304

Question: What about the relative viability (NCI-H460; first compound 1 µM) of the same molecule?
Answer: 0.0715

Question: What about the relative viability (NCI-H520; first compound 0.01 µM) of the same molecule?
Answer: 0.212

Question: And the relative viability (NCI-H520; first compound 0.03162 µM)?
Answer: 0.18

Question: And the relative viability (NCI-H520; first compound 0.1 µM)?
Answer: 0.192

Question: And the relative viability (NCI-H520; first compound 0.3162 µM)?
Answer: 0.16

Question: And the relative viability (NCI-H520; first compound 1 µM)?
Answer: 0.189

Question: What about the relative viability (NCI-H596; first compound 0.01 µM) of the same molecule?
Answer: 0.66

Question: What about the relative viability (NCI-H596; first compound 0.03162 µM) of the same molecule?
Answer: 0.632

Question: What about the relative viability (NCI-H596; first compound 0.1 µM) of the same molecule?
Answer: 0.715

Question: What about the relative viability (NCI-H596; first compound 0.3162 µM) of the same molecule?
Answer: 0.611

Question: And the relative viability (NCI-H596; first compound 1 µM)?
Answer: 0.481

Question: What about the relative viability (NCI-H650; first compound 0.01 µM) of the same molecule?
Answer: 0.455

Question: And the relative viability (NCI-H650; first compound 0.03162 µM)?
Answer: 0.539

Question: And the relative viability (NCI-H650; first compound 0.1 µM)?
Answer: 0.475

Question: What about the relative viability (NCI-H650; first compound 0.3162 µM) of the same molecule?
Answer: 0.505

Question: What about the relative viability (NCI-H650; first compound 1 µM) of the same molecule?
Answer: 0.412

Question: And the relative viability (NCI-H661; first compound 0.01 µM)?
Answer: 0.753

Question: And the relative viability (NCI-H661; first compound 0.03162 µM)?
Answer: 0.808

Question: What about the relative viability (NCI-H661; first compound 0.1 µM) of the same molecule?
Answer: 0.575

Question: What about the relative viability (NCI-H661; first compound 0.3162 µM) of the same molecule?
Answer: 0.468

Question: And the relative viability (NCI-H661; first compound 1 µM)?
Answer: 0.296

Question: And the relative viability (NCI-H727; first compound 0.01 µM)?
Answer: 0.374

Question: What about the relative viability (NCI-H727; first compound 0.03162 µM) of the same molecule?
Answer: 0.422

Question: And the relative viability (NCI-H727; first compound 0.1 µM)?
Answer: 0.35

Question: What about the relative viability (NCI-H727; first compound 0.3162 µM) of the same molecule?
Answer: 0.284

Question: What about the relative viability (NCI-H727; first compound 1 µM) of the same molecule?
Answer: 0.191

Question: What about the relative viability (PC-14; first compound 0.01 µM) of the same molecule?
Answer: 0.281

Question: What about the relative viability (PC-14; first compound 0.03162 µM) of the same molecule?
Answer: 0.254

Question: And the relative viability (PC-14; first compound 0.1 µM)?
Answer: 0.211

Question: What about the relative viability (PC-14; first compound 0.3162 µM) of the same molecule?
Answer: 0.0804

Question: And the relative viability (PC-14; first compound 1 µM)?
Answer: 0.0213

Question: And the relative viability (RERF-LC-KJ; first compound 0.01 µM)?
Answer: 0.847

Question: What about the relative viability (RERF-LC-KJ; first compound 0.03162 µM) of the same molecule?
Answer: 0.896

Question: What about the relative viability (RERF-LC-KJ; first compound 0.1 µM) of the same molecule?
Answer: 0.858

Question: What about the relative viability (RERF-LC-KJ; first compound 0.3162 µM) of the same molecule?
Answer: 0.782

Question: And the relative viability (RERF-LC-KJ; first compound 1 µM)?
Answer: 0.563

Question: What about the relative viability (SK-MES-1; first compound 0.01 µM) of the same molecule?
Answer: 0.413

Question: What about the relative viability (SK-MES-1; first compound 0.03162 µM) of the same molecule?
Answer: 0.468

Question: And the relative viability (SK-MES-1; first compound 0.1 µM)?
Answer: 0.302

Question: What about the relative viability (SK-MES-1; first compound 0.3162 µM) of the same molecule?
Answer: 0.131

Question: And the relative viability (SK-MES-1; first compound 1 µM)?
Answer: 0.117

Question: And the relative viability (SW 900; first compound 0.01 µM)?
Answer: 0.421

Question: And the relative viability (SW 900; first compound 0.03162 µM)?
Answer: 0.776

Question: What about the relative viability (SW 900; first compound 0.1 µM) of the same molecule?
Answer: 0.625

Question: What about the relative viability (SW 900; first compound 0.3162 µM) of the same molecule?
Answer: 0.674

Question: And the relative viability (SW 900; first compound 1 µM)?
Answer: 0.165
